Results published in the supplement of paper PMC10307832.

These cell lines were tested with CC(C)CCN1c2nc(Nc3cc(F)c(O)c(F)c3)ncc2N(C)C(=O)C1C [BI-D1870] + C[C@@H](Oc1cc(-c2cnn(C3CCNCC3)c2)cnc1N)c1c(Cl)ccc(F)c1Cl [Crizotinib] (partner 1 µM) (assay: relative viability (nuclei count vs DMSO), 5 days (fraction); higher = more cells survive). Details: first compound 0.04 µM.
Method in brief: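 Medians of duplicate plates are given as relative viability. That measure is the nuclei count in treated wells divided by the count in vehicle wells. Counts were taken on 4× images of lung cancer cell lines in 1536-well plates, 5 days after pin-tool dosing the day after seeding with one drug alone or a fixed anchor-drug dose plus five library-drug doses (not always all listed) in √10 steps.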

Question: With LU99A as the cell line, how does the relative viability read?
Answer: 0.692

Question: How did the relative viability turn out when BEN was run?
Answer: 1.12

Question: HARA was tested. Which relative viability did it give?
Answer: 1.15

Question: HCC-78 was tested. Which relative viability did it give?
Answer: 0.365

Question: Which relative viability does the source give for NCI-H322M here?
Answer: 0.924

Question: Which relative viability does the source give for LCLC-97TM1 here?
Answer: 0.361

Question: Which relative viability does the source give for NCI-H2009 here?
Answer: 1.06

Question: How did the relative viability turn out when A-427 was run?
Answer: 0.992

Question: With NCI-H661 as the cell line, how does the relative viability read?
Answer: 1.24

Question: For NCI-H1734, which relative viability is on record?
Answer: 0.806

Question: How did the relative viability turn out when NCI-H460 was run?
Answer: 1.2

Question: How did the relative viability turn out when NCI-H2347 was run?
Answer: 0.812

Question: For SK-LU-1, which relative viability is on record?
Answer: 1.14

Question: With 201T as the cell line, how does the relative viability read?
Answer: 1.02

Question: For NCI-H1915, which relative viability is on record?
Answer: 0.932

Question: With HCC-827 as the cell line, how does the relative viability read?
Answer: 0.97

Question: How did the relative viability turn out when LXF-289 was run?
Answer: 0.905

Question: NCI-H23 was tested. Which relative viability did it give?
Answer: 0.527

Question: With NCI-H647 as the cell line, how does the relative viability read?
Answer: 1.05

Question: Which relative viability does the source give for CAL-12T here?
Answer: 0.598

Question: NCI-H1651 was tested. Which relative viability did it give?
Answer: 0.91

Question: Which relative viability does the source give for EPLC-272H here?
Answer: 0.926

Question: For NCI-H2228, which relative viability is on record?
Answer: 0.645

Question: How did the relative viability turn out when NCI-H1792 was run?
Answer: 1.06

Question: NCI-H1355 was tested. Which relative viability did it give?
Answer: 1.12

Question: NCI-H3122 was tested. Which relative viability did it give?
Answer: 0.283

Question: How did the relative viability turn out when NCI-H1437 was run?
Answer: 1.04

Question: How did the relative viability turn out when NCI-H1755 was run?
Answer: 0.977

Question: How did the relative viability turn out when NCI-H2023 was run?
Answer: 0.724

Question: How did the relative viability turn out when HCC-15 was run?
Answer: 0.919

Question: For PC-14, which relative viability is on record?
Answer: 1.03

Question: Which relative viability does the source give for EKVX here?
Answer: 0.929

Same assay, conditions: first compound 0.1265 µM

Question: With LU99A as the cell line, how does the relative viability read?
Answer: 0.539

Question: How did the relative viability turn out when BEN was run?
Answer: 0.722

Question: HARA was tested. Which relative viability did it give?
Answer: 0.941

Question: HCC-78 was tested. Which relative viability did it give?
Answer: 0.318

Question: With NCI-H322M as the cell line, how does the relative viability read?
Answer: 0.822

Question: With LCLC-97TM1 as the cell line, how does the relative viability read?
Answer: 0.361

Question: Which relative viability does the source give for NCI-H2009 here?
Answer: 0.996

Question: For A-427, which relative viability is on record?
Answer: 0.86

Question: With NCI-H661 as the cell line, how does the relative viability read?
Answer: 0.963

Question: How did the relative viability turn out when NCI-H1734 was run?
Answer: 0.618

Question: How did the relative viability turn out when NCI-H460 was run?
Answer: 0.76

Question: How did the relative viability turn out when NCI-H2347 was run?
Answer: 0.674

Question: How did the relative viability turn out when SK-LU-1 was run?
Answer: 0.81

Question: With 201T as the cell line, how does the relative viability read?
Answer: 1.02

Question: NCI-H1915 was tested. Which relative viability did it give?
Answer: 0.835

Question: With HCC-827 as the cell line, how does the relative viability read?
Answer: 0.912

Question: With LXF-289 as the cell line, how does the relative viability read?
Answer: 0.796

Question: Which relative viability does the source give for NCI-H23 here?
Answer: 0.424

Question: How did the relative viability turn out when NCI-H647 was run?
Answer: 1.03

Question: With CAL-12T as the cell line, how does the relative viability read?
Answer: 0.53

Question: For NCI-H1651, which relative viability is on record?
Answer: 0.821

Question: How did the relative viability turn out when EPLC-272H was run?
Answer: 0.86

Question: NCI-H2228 was tested. Which relative viability did it give?
Answer: 0.479

Question: Which relative viability does the source give for NCI-H1792 here?
Answer: 0.994

Question: For NCI-H1355, which relative viability is on record?
Answer: 0.985

Question: How did the relative viability turn out when NCI-H3122 was run?
Answer: 0.275

Question: Which relative viability does the source give for NCI-H1437 here?
Answer: 0.811

Question: How did the relative viability turn out when NCI-H1755 was run?
Answer: 0.838

Question: For NCI-H2023, which relative viability is on record?
Answer: 0.525

Question: How did the relative viability turn out when HCC-15 was run?
Answer: 0.733

Question: With PC-14 as the cell line, how does the relative viability read?
Answer: 0.909

Question: How did the relative viability turn out when EKVX was run?
Answer: 0.986

Same assay, conditions: first compound 0.4 µM

Question: Which relative viability does the source give for LU99A here?
Answer: 0.552

Question: BEN was tested. Which relative viability did it give?
Answer: 1.01

Question: For HARA, which relative viability is on record?
Answer: 0.994

Question: With HCC-78 as the cell line, how does the relative viability read?
Answer: 0.309

Question: For NCI-H322M, which relative viability is on record?
Answer: 0.795

Question: For LCLC-97TM1, which relative viability is on record?
Answer: 0.36

Question: With NCI-H2009 as the cell line, how does the relative viability read?
Answer: 0.962

Question: For A-427, which relative viability is on record?
Answer: 0.825

Question: With NCI-H661 as the cell line, how does the relative viability read?
Answer: 0.973

Question: How did the relative viability turn out when NCI-H1734 was run?
Answer: 0.593

Question: How did the relative viability turn out when NCI-H460 was run?
Answer: 0.84

Question: For NCI-H2347, which relative viability is on record?
Answer: 0.7

Question: How did the relative viability turn out when SK-LU-1 was run?
Answer: 0.88

Question: With 201T as the cell line, how does the relative viability read?
Answer: 1.04

Question: NCI-H1915 was tested. Which relative viability did it give?
Answer: 0.962

Question: For HCC-827, which relative viability is on record?
Answer: 0.95

Question: For LXF-289, which relative viability is on record?
Answer: 0.797

Question: Which relative viability does the source give for NCI-H23 here?
Answer: 0.509

Question: For NCI-H647, which relative viability is on record?
Answer: 1.12

Question: For CAL-12T, which relative viability is on record?
Answer: 0.662

Question: Which relative viability does the source give for NCI-H1651 here?
Answer: 0.821

Question: With EPLC-272H as the cell line, how does the relative viability read?
Answer: 0.904

Question: Which relative viability does the source give for NCI-H2228 here?
Answer: 0.374

Question: For NCI-H1792, which relative viability is on record?
Answer: 0.908

Question: Which relative viability does the source give for NCI-H1355 here?
Answer: 1.1

Question: NCI-H3122 was tested. Which relative viability did it give?
Answer: 0.293

Question: How did the relative viability turn out when NCI-H1437 was run?
Answer: 0.873

Question: With NCI-H1755 as the cell line, how does the relative viability read?
Answer: 0.876

Question: How did the relative viability turn out when NCI-H2023 was run?
Answer: 0.579

Question: HCC-15 was tested. Which relative viability did it give?
Answer: 0.74

Question: With PC-14 as the cell line, how does the relative viability read?
Answer: 0.797

Question: Which relative viability does the source give for EKVX here?
Answer: 0.92

Same assay, conditions: first compound 1.265 µM

Question: How did the relative viability turn out when LU99A was run?
Answer: 0.547

Question: How did the relative viability turn out when BEN was run?
Answer: 0.99

Question: For HARA, which relative viability is on record?
Answer: 1.24

Question: With HCC-78 as the cell line, how does the relative viability read?
Answer: 0.295

Question: NCI-H322M was tested. Which relative viability did it give?
Answer: 1.05

Question: For LCLC-97TM1, which relative viability is on record?
Answer: 0.57

Question: How did the relative viability turn out when NCI-H2009 was run?
Answer: 0.609

Question: With A-427 as the cell line, how does the relative viability read?
Answer: 1.11

Question: NCI-H661 was tested. Which relative viability did it give?
Answer: 1.05

Question: For NCI-H1734, which relative viability is on record?
Answer: 0.664

Question: How did the relative viability turn out when NCI-H460 was run?
Answer: 0.926

Question: How did the relative viability turn out when NCI-H2347 was run?
Answer: 0.662

Question: With SK-LU-1 as the cell line, how does the relative viability read?
Answer: 0.859

Question: How did the relative viability turn out when 201T was run?
Answer: 1.07

Question: With NCI-H1915 as the cell line, how does the relative viability read?
Answer: 0.935

Question: Which relative viability does the source give for HCC-827 here?
Answer: 0.947

Question: Which relative viability does the source give for LXF-289 here?
Answer: 0.793

Question: How did the relative viability turn out when NCI-H23 was run?
Answer: 0.667

Question: Which relative viability does the source give for NCI-H647 here?
Answer: 1.2

Question: For CAL-12T, which relative viability is on record?
Answer: 0.506

Question: With NCI-H1651 as the cell line, how does the relative viability read?
Answer: 0.939

Question: With EPLC-272H as the cell line, how does the relative viability read?
Answer: 0.972

Question: For NCI-H2228, which relative viability is on record?
Answer: 0.435

Question: With NCI-H1792 as the cell line, how does the relative viability read?
Answer: 1.13

Question: With NCI-H1355 as the cell line, how does the relative viability read?
Answer: 1.08

Question: With NCI-H3122 as the cell line, how does the relative viability read?
Answer: 0.28

Question: With NCI-H1437 as the cell line, how does the relative viability read?
Answer: 0.794

Question: For NCI-H1755, which relative viability is on record?
Answer: 0.829

Question: With NCI-H2023 as the cell line, how does the relative viability read?
Answer: 0.612

Question: HCC-15 was tested. Which relative viability did it give?
Answer: 0.81

Question: How did the relative viability turn out when PC-14 was run?
Answer: 0.923

Question: EKVX was tested. Which relative viability did it give?
Answer: 0.941

Same assay, conditions: first compound 4 µM

Question: LU99A was tested. Which relative viability did it give?
Answer: 0.508

Question: With BEN as the cell line, how does the relative viability read?
Answer: 0.822

Question: HARA was tested. Which relative viability did it give?
Answer: 0.922

Question: HCC-78 was tested. Which relative viability did it give?
Answer: 0.245

Question: NCI-H322M was tested. Which relative viability did it give?
Answer: 0.651

Question: For LCLC-97TM1, which relative viability is on record?
Answer: 0.312

Question: With NCI-H2009 as the cell line, how does the relative viability read?
Answer: 0.457

Question: Which relative viability does the source give for A-427 here?
Answer: 0.857

Question: With NCI-H661 as the cell line, how does the relative viability read?
Answer: 0.902

Question: NCI-H1734 was tested. Which relative viability did it give?
Answer: 0.645

Question: NCI-H460 was tested. Which relative viability did it give?
Answer: 0.14

Question: With NCI-H2347 as the cell line, how does the relative viability read?
Answer: 0.577

Question: How did the relative viability turn out when SK-LU-1 was run?
Answer: 0.315

Question: With 201T as the cell line, how does the relative viability read?
Answer: 1.03

Question: Which relative viability does the source give for NCI-H1915 here?
Answer: 0.881

Question: How did the relative viability turn out when HCC-827 was run?
Answer: 0.821

Question: How did the relative viability turn out when LXF-289 was run?
Answer: 0.619

Question: Which relative viability does the source give for NCI-H23 here?
Answer: 0.559

Question: With NCI-H647 as the cell line, how does the relative viability read?
Answer: 0.799

Question: CAL-12T was tested. Which relative viability did it give?
Answer: 0.283

Question: Which relative viability does the source give for NCI-H1651 here?
Answer: 0.872

Question: For EPLC-272H, which relative viability is on record?
Answer: 0.931

Question: With NCI-H2228 as the cell line, how does the relative viability read?
Answer: 0.329

Question: For NCI-H1792, which relative viability is on record?
Answer: 0.858

Question: For NCI-H1355, which relative viability is on record?
Answer: 1.11

Question: Which relative viability does the source give for NCI-H3122 here?
Answer: 0.325

Question: NCI-H1437 was tested. Which relative viability did it give?
Answer: 0.677

Question: Which relative viability does the source give for NCI-H1755 here?
Answer: 0.762

Question: Which relative viability does the source give for NCI-H2023 here?
Answer: 0.497

Question: How did the relative viability turn out when HCC-15 was run?
Answer: 0.594

Question: How did the relative viability turn out when PC-14 was run?
Answer: 0.768
